US8952024B2, “Herbicidal pyrimidone derivatives” (E I du Pont de Nemours and Company, priority 2009, dated 2015)
Where two headings read alike, the source gives them in different places.

Tests used:
Experiment in all cases: Test B pre-/postemergence plant response
Type in all cases: in vivo
[1] = system: blackgrass (Alopecurus myosuroides); conditions: Preemergence
In short: (§1)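 Visually scored on a 0 to 100 scale after 13 to 15 days in greenhouse versus controls. Treatments were preemergence on seeded loam/sand soil and postemergence on 1- to 4-leaf plants.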

kochia (Kochia scoparia) = conditions: for pest or weed control at 31 g/ha: 31 g ai/ha; for pest or weed control at 125 g/ha: 125 g ai/ha
In short: as §1

corn (Zea mays) = conditions: for Corn plant response rating (crop injury, 0 = no effect, 100 = complete kill) at 31 g/ha: 31 g ai/ha; for Corn plant response rating (crop injury, 0 = no effect, 100 = complete kill) at 125 g/ha: 125 g ai/ha
In short: as §1

[2] = system: johnsongrass (Sorghum halepense); conditions: for pest or weed control at 31 g/ha: 31 g ai/ha; for pest or weed control at 125 g/ha: 125 g ai/ha
In short: as §1

[3] = system: giant foxtail (Setaria faberii); conditions: for pest or weed control at 31 g/ha: 31 g ai/ha; for pest or weed control at 125 g/ha: 125 g ai/ha
In short: as §1

[4] = system: Italian ryegrass (Lolium multiflorum); conditions: for pest or weed control at 31 g/ha: 31 g ai/ha; for pest or weed control at 125 g/ha: 125 g ai/ha
In short: as §1

[5] = system: downy bromegrass (Bromus tectorum); conditions: for pest or weed control at 31 g/ha: 31 g ai/ha; for pest or weed control at 125 g/ha: 125 g ai/ha
In short: as §1

[6] = system: velvetleaf (Abutilon theophrasti); conditions: for pest or weed control at 31 g/ha: 31 g ai/ha; for pest or weed control at 125 g/ha: 125 g ai/ha
In short: as §1

[7] = system: yellow nutsedge (Cyperus esculentus); conditions: for pest or weed control at 31 g/ha: 31 g ai/ha; for pest or weed control at 125 g/ha: 125 g ai/ha
In short: as §1

[8] = 62 g ai/ha, postemergence, 0 is no effect, 100 is complete control, 13 to 15 days
[9] = Preemergence, 250 g ai/ha, 0 to 100 scale

COCCCn1c(-c2ccccc2)ncc(C(=O)C2=C(O)CCCC2=O)c1=O [Compound 81, 5-[(2-hydroxy-6-oxo-cyclohexen-1-yl)carbonyl]-3-(3-methoxypropyl)-2-phenyl-4(3H)-pyrimidinone]
pest or weed control at 31 g/ha ([1]; Alopecurus myosuroides, pre-emergence, 360 h, 31 g ai/ha, scale 0 to 100 (0 no effect, 100 complete control), read-out: Plant response rating, Blackgrass): 0% | pest or weed control at 62 g/ha ([1]; Alopecurus myosuroides, pre-emergence, 360 h, 62 g ai/ha, scale 0 to 100, 0 no effect, 100 complete control, read-out: Plant response rating, Blackgrass): 0% | pest or weed control at 125 g/ha ([1]; Alopecurus myosuroides, pre-emergence, 360 h, 125 g ai/ha, scale 0 to 100, 0 no effect, 100 complete control, read-out: Plant response rating, Blackgrass): 35% | Blackgrass plant response rating ([1]; 250 g ai/ha, 0 to 100 scale): 35 | Kochia plant response rating (0 to 100 scale) (kochia (Kochia scoparia); [8]): 80 | pest or weed control at 31 g/ha (kochia (Kochia scoparia); Bassia scoparia, post-emergence, postemergence, scale 0 to 100, 0 is no effect, 100 is complete control, read-out: Plant response rating, Kochia): 75% | pest or weed control at 125 g/ha (kochia (Kochia scoparia); Bassia scoparia, post-emergence, Postemergence, visual rating after 13 to 15 days, scale 0 (no effect) to 100 (complete control)): 90% | pest or weed control at 250 g/ha (kochia (Kochia scoparia); Bassia scoparia, post-emergence, Postemergence, 250 g ai/ha, scale 0 to 100 (0 no effect, 100 complete control), read-out: Plant response rating, Kochia): 100% | pest or weed control at 31 g/ha (kochia (Kochia scoparia); Bassia scoparia, pre-emergence, Preemergence, scale 0 to 100 (0 no effect, 100 complete control), read-out: Plant response rating, Kochia): 45% | pest or weed control at 62 g/ha (kochia (Kochia scoparia); Bassia scoparia, pre-emergence, Preemergence, 62 g ai/ha, scale 0 to 100 (0 no effect, 100 complete control), read-out: Plant response rating, Kochia): 55% | pest or weed control at 125 g/ha (kochia (Kochia scoparia); Bassia scoparia, pre-emergence, Preemergence, scale 0 to 100, 0 no effect, 100 complete control, read-out: Plant response rating, Kochia): 65% | Kochia plant response rating (kochia (Kochia scoparia); [9]): 70 | Corn plant response rating (0 to 100 scale) (corn (Zea mays); [8]): 10 | Corn plant response rating (corn (Zea mays); [9]): 55 | Corn plant response rating (crop injury, 0 = no effect, 100 = complete kill) at 31 g/ha (corn (Zea mays); Zea mays, post-emergence, postemergence, scale 0 to 100, 0 is no effect, 100 is complete control): 5% | Corn plant response rating (crop injury, 0 = no effect, 100 = complete kill) at 125 g/ha (corn (Zea mays); Zea mays, post-emergence, Postemergence, visual rating after 13 to 15 days, scale 0 (no effect) to 100 (complete control)): 15% | Corn plant response rating (crop injury, 0 = no effect, 100 = complete kill) at 250 g/ha (corn (Zea mays); Zea mays, post-emergence, Postemergence, 250 g ai/ha, scale 0 to 100 (0 no effect, 100 complete control)): 65% | Corn plant response rating (crop injury, 0 = no effect, 100 = complete kill) at 31 g/ha (corn (Zea mays); Zea mays, pre-emergence, Preemergence, scale 0 to 100 (0 no effect, 100 complete control)): 40% | Corn plant response rating (crop injury, 0 = no effect, 100 = complete kill) at 62 g/ha (corn (Zea mays); Zea mays, pre-emergence, Preemergence, 62 g ai/ha, scale 0 to 100, 0 no effect, 100 complete control): 40% | Corn plant response rating (crop injury, 0 = no effect, 100 = complete kill) at 125 g/ha (corn (Zea mays); Zea mays, pre-emergence, Preemergence, scale 0 to 100, 0 no effect, 100 complete control): 50% | Johnsongrass plant response rating (0 to 100 scale) [2, 8]: 10 | Johnsongrass plant response rating [2, 9]: 90 | pest or weed control at 31 g/ha ([2]; Sorghum halepense, post-emergence, postemergence, scale 0 to 100, 0 is no effect, 100 is complete control, read-out: Plant response rating, Johnsongrass): 5% | pest or weed control at 125 g/ha ([2]; Sorghum halepense, post-emergence, Postemergence, visual rating after 13 to 15 days, scale 0 (no effect) to 100 (complete control)): 75% | pest or weed control at 250 g/ha ([2]; Sorghum halepense, post-emergence, Postemergence, 250 g ai/ha, scale 0 to 100 (0 no effect, 100 complete control), read-out: Plant response rating, Johnsongrass): 100% | pest or weed control at 31 g/ha ([2]; Sorghum halepense, pre-emergence, Preemergence, scale 0 to 100 (0 no effect, 100 complete control), read-out: Plant response rating, Johnsongrass): 10% | pest or weed control at 62 g/ha ([2]; Sorghum halepense, pre-emergence, Preemergence, 62 g ai/ha, scale 0 to 100, 0 no effect, 100 complete control, read-out: Plant response rating, Johnsongrass): 80% | pest or weed control at 125 g/ha ([2]; Sorghum halepense, pre-emergence, Preemergence, scale 0 to 100, 0 no effect, 100 complete control, read-out: Plant response rating, Johnsongrass): 90% | Foxtail, Giant plant response rating (0 to 100 scale) [3, 8]: 85 | Foxtail, Giant plant response rating [3, 9]: 98 | pest or weed control at 31 g/ha ([3]; Setaria faberi, post-emergence, postemergence, scale 0 to 100, 0 is no effect, 100 is complete control, read-out: Plant response rating, Foxtail, Giant): 75% | pest or weed control at 125 g/ha ([3]; Setaria faberi, post-emergence, Postemergence, visual rating after 13 to 15 days, scale 0 (no effect) to 100 (complete control)): 95% | pest or weed control at 250 g/ha ([3]; Setaria faberi, post-emergence, Postemergence, 250 g ai/ha, scale 0 to 100 (0 no effect, 100 complete control), read-out: Plant response rating, Foxtail, Giant): 98% | pest or weed control at 31 g/ha ([3]; Setaria faberi, pre-emergence, Preemergence, scale 0 to 100 (0 no effect, 100 complete control), read-out: Plant response rating, Foxtail, Giant): 60% | pest or weed control at 62 g/ha ([3]; Setaria faberi, pre-emergence, Preemergence, 62 g ai/ha, scale 0 to 100, 0 no effect, 100 complete control, read-out: Plant response rating, Foxtail, Giant): 75% | pest or weed control at 125 g/ha ([3]; Setaria faberi, pre-emergence, Preemergence, scale 0 to 100, 0 no effect, 100 complete control, read-out: Plant response rating, Foxtail, Giant): 85% | Ryegrass, Italian plant response rating (0 to 100 scale) [4, 8]: 5 | pest or weed control at 31 g/ha ([4]; Lolium multiflorum, post-emergence, postemergence, scale 0 to 100, 0 is no effect, 100 is complete control, read-out: Plant response rating, Ryegrass, Italian): 0% | pest or weed control at 125 g/ha ([4]; Lolium multiflorum, post-emergence, Postemergence, visual rating after 13 to 15 days, scale 0 (no effect) to 100 (complete control)): 45% | pest or weed control at 250 g/ha ([4]; Lolium multiflorum, post-emergence, Postemergence, 250 g ai/ha, scale 0 to 100 (0 no effect, 100 complete control), read-out: Plant response rating, Ryegrass, Italian): 55% | pest or weed control at 31 g/ha ([4]; Lolium multiflorum, pre-emergence, Preemergence, scale 0 to 100 (0 no effect, 100 complete control), read-out: Plant response rating, Ryegrass, Italian): 0% | pest or weed control at 62 g/ha ([4]; Lolium multiflorum, pre-emergence, Preemergence, 62 g ai/ha, scale 0 to 100 (0 no effect, 100 complete control), read-out: Plant response rating, Ryegrass, Italian): 0% | pest or weed control at 125 g/ha ([4]; Lolium multiflorum, pre-emergence, Preemergence, scale 0 to 100, 0 no effect, 100 complete control, read-out: Plant response rating, Ryegrass, Italian): 0% | Ryegrass, Italian plant response rating [4, 9]: 0 | Bromegrass, Downy plant response rating (0 to 100 scale) [5, 8]: 5 | pest or weed control at 31 g/ha ([5]; Bromus tectorum, post-emergence, postemergence, scale 0 to 100, 0 is no effect, 100 is complete control, read-out: Plant response rating, Bromegrass, Downy): 5% | pest or weed control at 125 g/ha ([5]; Bromus tectorum, post-emergence, Postemergence, visual rating after 13 to 15 days, scale 0 (no effect) to 100 (complete control)): 30% | pest or weed control at 250 g/ha ([5]; Bromus tectorum, post-emergence, Postemergence, 250 g ai/ha, scale 0 to 100 (0 no effect, 100 complete control), read-out: Plant response rating, Bromegrass, Downy): 50% | pest or weed control at 31 g/ha ([5]; Bromus tectorum, pre-emergence, Preemergence, scale 0 to 100 (0 no effect, 100 complete control), read-out: Plant response rating, Bromegrass, Downy): 0% | pest or weed control at 62 g/ha ([5]; Bromus tectorum, pre-emergence, Preemergence, 62 g ai/ha, scale 0 to 100, 0 no effect, 100 complete control, read-out: Plant response rating, Bromegrass, Downy): 0% | pest or weed control at 125 g/ha ([5]; Bromus tectorum, pre-emergence, Preemergence, scale 0 to 100, 0 no effect, 100 complete control, read-out: Plant response rating, Bromegrass, Downy): 0% | Bromegrass, Downy plant response rating [5, 9]: 0 | Velvetleaf plant response rating (0 to 100 scale) [6, 8]: 100 | pest or weed control at 31 g/ha ([6]; Abutilon theophrasti, post-emergence, 360 h, postemergence, scale 0 to 100, 0 is no effect, 100 is complete control, read-out: Plant response rating, Velvetleaf): 100% | pest or weed control at 125 g/ha ([6]; Abutilon theophrasti, post-emergence, 360 h, Postemergence, visual rating after 13 to 15 days, scale 0 (no effect) to 100 (complete control)): 100% | pest or weed control at 250 g/ha ([6]; Abutilon theophrasti, post-emergence, 360 h, Postemergence, 250 g ai/ha, scale 0 to 100 (0 no effect, 100 complete control), read-out: Plant response rating, Velvetleaf): 100% | pest or weed control at 31 g/ha ([6]; Abutilon theophrasti, pre-emergence, 360 h, Preemergence, scale 0 to 100 (0 no effect, 100 complete control), read-out: Plant response rating, Velvetleaf): 100% | pest or weed control at 62 g/ha ([6]; Abutilon theophrasti, pre-emergence, 360 h, Preemergence, 62 g ai/ha, scale 0 to 100 (0 no effect, 100 complete control), read-out: Plant response rating, Velvetleaf): 100% | pest or weed control at 125 g/ha ([6]; Abutilon theophrasti, pre-emergence, 360 h, Preemergence, scale 0 to 100, 0 no effect, 100 complete control, read-out: Plant response rating, Velvetleaf): 100% | Velvetleaf plant response rating [6, 9]: 100 | Nutsedge, Yellow plant response rating (0 to 100 scale) [7, 8]: 80 | pest or weed control at 31 g/ha ([7]; Cyperus, post-emergence, postemergence, scale 0 to 100, 0 is no effect, 100 is complete control, read-out: Plant response rating, Nutsedge, Yellow): 65% | pest or weed control at 125 g/ha ([7]; Cyperus, post-emergence, Postemergence, visual rating after 13 to 15 days, scale 0 (no effect) to 100 (complete control)): 80% | pest or weed control at 250 g/ha ([7]; Cyperus, post-emergence, Postemergence, 250 g ai/ha, scale 0 to 100 (0 no effect, 100 complete control), read-out: Plant response rating, Nutsedge, Yellow): 80% | pest or weed control at 31 g/ha ([7]; Cyperus, pre-emergence, Preemergence, scale 0 to 100 (0 no effect, 100 complete control), read-out: Plant response rating, Nutsedge, Yellow): 10% | pest or weed control at 62 g/ha ([7]; Cyperus, pre-emergence, Preemergence, 62 g ai/ha, scale 0 to 100 (0 no effect, 100 complete control), read-out: Plant response rating, Nutsedge, Yellow): 75% | pest or weed control at 125 g/ha ([7]; Cyperus, pre-emergence, Preemergence, scale 0 to 100, 0 no effect, 100 complete control, read-out: Plant response rating, Nutsedge, Yellow): 95% | Nutsedge, Yellow plant response rating [7, 9]: 95
